Measured values: patent publication US10294219B2 (priority 2015, dated 2019)
Read-outs that look alike come from different tables or passages of the source.

Columns and labels:
[1] = data from US20130324496A1, cited from earlier work
[2] = Light stability assessment (LS-3000 light test chamber, HPLC purity after illumination); assay type: physicochemical; conditions: 1.2 million lux·hours of illumination, 4400 lux for 12 days, layer no more than 1 mm
Source text: Samples of different crystal forms were placed in a watch glass and spread to a thin layer with thickness of no more than 1 mm, placed in a LS-3000 light test chamber with a light intensity of 4400 lux for 12 days.
(2) The purity of the sample after illumination was checked by HPLC and compared with the initial purity.

[3] = Changes of crystal form at different temperatures; assay type: physicochemical
[4] = Solvent-based screening of crystal form changes; assay type: physicochemical
[5] = 100 mg suspended in 200 μL Ethyl acetate
[6] = 100 mg suspended in 200 μL MTBE

COC(=O)N[C@H](C(=O)N1CC2(CC2)C[C@H]1c1ncc(-c2ccc3c(c2)C(F)(F)c2cc(-c4ccc5nc([C@@H]6[C@H]7CC[C@H](C7)N6C(=O)[C@@H](NC(=O)OC)C(C)C)[nH]c5c4)ccc2-3)[nH]1)C(C)C [Ledipasvir amorphous, Ledipasvir]
HPLC purity decreased, % ([1]; 1.2 million lux·hours): 8.3%

COC(=O)N[C@H](C(=O)N1CC2(CC2)C[C@H]1c1ncc(-c2ccc3c(c2)C(F)(F)c2cc(-c4ccc5nc([C@@H]6[C@H]7CC[C@H](C7)N6C(=O)[C@@H](NC(=O)OC)C(C)C)[nH]c5c4)ccc2-3)[nH]1)C(C)C [Ledipasvir diacetone solvate]
HPLC purity decreased, % ([1]; 1.2 million lux·hours): 6.3%

COC(=O)N[C@H](C(=O)N1CC2(CC2)C[C@H]1c1ncc(-c2ccc3c(c2)C(F)(F)c2cc(-c4ccc5nc([C@@H]6[C@H]7CC[C@H](C7)N6C(=O)[C@@H](NC(=O)OC)C(C)C)[nH]c5c4)ccc2-3)[nH]1)C(C)C [crystal form A of Ledipasvir, LDV-acetonitrile-MTBE ternary solvate]
HPLC purity decreased, % [2]: 2.0% | HPLC purity decreased, % ([2]; listed as LDV-acetonitrile-MTBE ternary solvate): 2.0% | HPLC purity decreased, % ([2]; listed as Ledipasvir crystal form A): 2.0% | Crystal Form ([3]; 120° C., nitrogen protection): crystal form C | Crystal Form ([3]; 120° C., nitrogen protection, listed as crystal form A): crystal form C | Crystal Form ([3]; 180° C., nitrogen protection): amorphous form | Crystal Form ([3]; Room temperature): crystal form A | Solvent-based screening result (change of crystal form) ([4]; 100 mg suspended in 200 μL ACN): crystal form D | Solvent-based screening result (change of crystal form) [4, 5]: solution | Solvent-based screening result (change of crystal form) [4, 6]: amorphous form

COC(=O)N[C@H](C(=O)N1CC2(CC2)C[C@H]1c1ncc(-c2ccc3c(c2)C(F)(F)c2cc(-c4ccc5nc([C@@H]6[C@H]7CC[C@H](C7)N6C(=O)[C@@H](NC(=O)OC)C(C)C)[nH]c5c4)ccc2-3)[nH]1)C(C)C [crystal form B of Ledipasvir, LDV-acetone-MTBE ternary solvate]
HPLC purity decreased, % [2]: 0.6% | HPLC purity decreased, % ([2]; listed as LDV-acetone-MTBE ternary solvate): 0.6% | HPLC purity decreased, % ([2]; listed as Ledipasvir crystal form B): 0.6% | Crystal Form ([3]; 120° C., nitrogen protection): crystal form E | Crystal Form ([3]; 120° C., nitrogen protection, listed as crystal form B): crystal form E | Crystal Form ([3]; 180° C., nitrogen protection): amorphous form | Crystal Form ([3]; Room temperature): crystal form B | Solvent-based screening result (change of crystal form) ([4]; 100 mg suspended in 200 μL ACN): crystal form D | Solvent-based screening result (change of crystal form) [4, 5]: solution | Solvent-based screening result (change of crystal form) [4, 6]: amorphous form

COC(=O)N[C@H](C(=O)N1CC2(CC2)C[C@H]1c1ncc(-c2ccc3c(c2)C(F)(F)c2cc(-c4ccc5nc([C@@H]6[C@H]7CC[C@H](C7)N6C(=O)[C@@H](NC(=O)OC)C(C)C)[nH]c5c4)ccc2-3)[nH]1)C(C)C [crystal form I of Ledipasvir]
HPLC purity decreased, % ([1]; 900,000 lux·hours): 6.6%

COC(=O)N[C@H](C(=O)N1CC2(CC2)C[C@H]1c1ncc(-c2ccc3c(c2)C(F)(F)c2cc(-c4ccc5nc([C@@H]6[C@H]7CC[C@H](C7)N6C(=O)[C@@H](NC(=O)OC)C(C)C)[nH]c5c4)ccc2-3)[nH]1)C(C)C [crystal form II of Ledipasvir]
HPLC purity decreased, % ([1]; 1.2 million lux·hours): 6.3%

COC(=O)N[C@H](C(=O)N1CC2(CC2)C[C@H]1c1ncc(-c2ccc3c(c2)C(F)(F)c2cc(-c4ccc5nc([C@@H]6[C@H]7CC[C@H](C7)N6C(=O)[C@@H](NC(=O)OC)C(C)C)[nH]c5c4)ccc2-3)[nH]1)C(C)C [monoacetone solvate]
HPLC purity decreased, % ([1]; 1.2 million lux·hours): 6.3%
